Assay results from US20140193521A1, “Drug Delivery Systems and Method of Reducing Foal Infection by Treating Mares with Gallium Salts” (priority 2011, published 2014).

What was measured:
[1] = administered to the foal; cited from earlier work
R equi = details: administered to the foal; cited from earlier work
[2] = Safety / adverse effects of gallium nitrate in horses; type: in vivo
Description: (§1) For example, without limitations, two adult horses were given a single dose of gallium nitrate by nasogastric tube at a dose of 9.2 mg/kg at 1% gallium nitrate concentration. […] Based on tis work, two more horses were dosed with 9.2 mg/kg of daily for 6 days to determine steady state values. […] There were traces of gallium present in both the red blood cells (“RBC”) and smaller amounts in the serum prior to any medication administration. It appears to concentrate in the RBC and move into the serum. The significance of this is unknown.

R. equi [3] = assay: Airborne concentration of R. equi in foaling stalls shortly after foaling; type: in vivo, Rhodococcus equi; details: stall air after foaling
Description: As part of a non-limiting example of an embodiment of the invention, the effect of oral GaN on the concentrations of virulent R. equi in the feces of the mares was determined. Twenty-one horses were randomly assigned in a paired block design to ensure that 10 mares were part of the treated group and 11 mares were part of the control group. These twenty-one Arabian mares were treated daily with either oral gallium nitrate or placebo. Fecal samples were collected at day 320 of gestation (time 1), the week before foaling (time 2), and the week after foaling (time 3). Airborne concentration of R. equi were measured in the stall within 6 hours post foaling using a microbial air sampling system into which standard (100-mm) culture plates with a media selective for R. equi have been loaded. […] The total number of R. equi colonies on a plate was determined by morphologic identification; additionally, 10 colonies identified as R. equi each month were tested by PCR to confirm that the isolates are R. equi.
As part of a non-limiting example of an embodiment of the invention, the following method was employed to determine the effect of oral GAN on the airborne concentration of virulent R. equi in foaling stalls shortly after birth. […] The number of total and virulent R. equi counted on each plate represented the airborne concentrations (cfu/1,000 liters of air). […]

virulent R. equi [4] = assay: Virulent R. equi in feces of mares by real-time TaqMan PCR of vapA gene; type: in vivo, Rhodococcus equi
Description: As part of a non-limiting example of an embodiment of the invention, virulent R. equi in feces was measured in the feces using the following method. Two milliliters of PBS were added to 1 g of each fecal sample in a conical tube. Thereafter, each sample was vortexed for 10 seconds and centrifuged at 13,000× g for 1 minute. In order to minimize contamination, all pipetting steps were performed in a laminar flow cabinet. Nucleic acid purification from 180 μl of supernatant fluid was performed using an automated nucleic acid extraction system (CAS-1820 X-tractor Gene, Corbett Life Science, Sydney, Australia) according to the manufacturer's recommendations. A real-time TaqMan PCR assay for R. equi has been established and validated. The assay is based on the detection of a specific 75 base-pair long product of the vapA gene of R. equi (GenBank accession number AF116907; oligonucleotides: forward primer […], reverse primer […], probe […]). Each PCR reaction contained 400 nM of each primer, 80 nM of the TaqMan probe and mastermix (TaqMan Universal PCR Mastermix, Applied Biosystems, Foster City, Calif.) and 1 μL of the gDNA sample in a final volume of 12 μL. […] DNA extraction and amplification efficiency were verified by quantitating the universal bacterial 16S rRNA gene. Absolute quantitation of R. equi target molecules was performed using a standard curve and expressed as R. equi vapA target genes per 1 g of feces. […]
The number of CFU/g of either virulent R. equi in feces was estimated using real-time PCR. Because these samples were collected serially from individual mares, these longitudinal data were analyzed using mixed-effects modeling, with time (number of days since last known breeding date) and treatment group modeled as fixed effects, and individual mare modeled as a random effect. […] The count of positive samples were determined for each mare, and Poisson regression analysis was used to examine the effects of treatment. […]

[5] = Whole blood and serum gallium in horses after gallium nitrate by nasogastric tube / oral dosing; type: in vivo
Description: FIG. 1 is a graph showing whole blood concentrations (micromoles/g) of horses in which gallium nitrate was administered daily after pulling blood for two days pre-administration. The horses were treated for five days.
(§2) For example, without limitation, in horses fed the same amount, the blood concentration increased from 0.0000231 micromoles/g to 0.0009004 micromoles/g well below what is needed to kill R. equi in the blood, but is a […] increase in blood concentration over time. Previous in vitro data found anything over 0.050 micromoles/ml killed R. equi in culture, and higher concentrations worked better. Administering oral gallium nitrate to mares daily achieved about 1.5 to 7.1 micromoles of gallium per gram of dry feces. This also led to a reduction in the concentration of R. equi in the feces of the mares.
as §1

[6] = Fecal concentration of gallium in mares given oral gallium nitrate daily; type: in vivo; details: 9.2 mg/kg of 1% GaN daily from day 320
Excerpt: FIG. 3 is a graph showing fecal concentration of gallium in ppm of gram of feces in control mares versus treated.
as §2
To determine the number of virulent colonies on each plate, a modified colony immunoblot method was used, as previously described (E.g., Grimm M B, Cohen N D, Slovis N M, et al. Evaluation of mares from a Thoroughbred breeding farm as a source of Rhodococcus equi for their foals using quantitative culture and a colony immunoblot assay. Am J Vet Res 2007; 68:63-71). Briefly, this procedure entails applying nitrocellulose membranes to culture plates to transfer bacterial surface proteins, blotting the membranes using a murine monoclonal antibody against the vapA protein, and then using a labeled secondary antibody to detect the presence of vapA-positive (i.e. virulent) colonies. […]

R. equi [7] = details: cited from earlier work
R. equi [8] = details: reported; cited from earlier work
[9] = pregnant mice, cited from earlier work
virulent R. equi [10] = assay: Fecal concentration of virulent R. equi in peripartum mares (culture, colony immunoblot); type: in vivo, Rhodococcus equi
Description: As part of a non-limiting example of an embodiment of the invention, the effect of oral GaN on the concentrations of virulent R. equi in the feces of the mares was determined. Twenty-one horses were randomly assigned in a paired block design to ensure that 10 mares were part of the treated group and 11 mares were part of the control group. These twenty-one Arabian mares were treated daily with either oral gallium nitrate or placebo. Fecal samples were collected at day 320 of gestation (time 1), the week before foaling (time 2), and the week after foaling (time 3). Airborne concentration of R. equi were measured in the stall within 6 hours post foaling using a microbial air sampling system into which standard (100-mm) culture plates with a media selective for R. equi have been loaded. This sample size of mares was selected on the basis of power calculations using the following assumptions: (a) significance level of P=0.05; (b) statistical power of 90%; (c) a mean of 1×10^4 colony forming units (cfu) per gram of feces among control mares; (d) a mean of 1×10^3 cfu per gram of feces among principal mares; and (e) standard deviations of 1×10^4 and 1×10^3 for the control and principal groups, respectively. The values for fecal concentrations were made on the basis of prior experiences of a collaborator. The total number of R. equi colonies on a plate was determined by morphologic identification; additionally, 10 colonies identified as R. equi each month were tested by PCR to confirm that the isolates are R. equi.
To determine the number of virulent colonies on each plate, a modified colony immunoblot method was used, as previously described (E.g., Grimm M B, Cohen N D, Slovis N M, et al. Evaluation of mares from a Thoroughbred breeding farm as a source of Rhodococcus equi for their foals using quantitative culture and a colony immunoblot assay. Am J Vet Res 2007; 68:63-71). […]
Concentrations of total R. equi were determined by morphological characteristics. The concentration of virulent R. equi was determined using a modified colony immunoblot method. […]

[11] = 300 to 1500 mg/kg intraperitoneally; cited from earlier work

## Cc1occc(=O)c1[O-].Cc1occc(=O)c1[O-].Cc1occc(=O)c1[O-].[Ga+3] [Gallium maltolate]
[1]
  gallium serum concentration: increased
R equi
  cumulative incidence of R equi pneumonia, control versus treated groups: no significant differences

## O=[N+]([O-])[O-].O=[N+]([O-])[O-].O=[N+]([O-])[O-].[Ga+3] [gallium nitrate]
[2]; 9.2 mg/kg single dose or daily for 6 days
  adverse effects in dosed horses: None of the horses showed any adverse effects
[2]; from conception through foaling
  adverse effects in pregnant mares: no demonstrable adverse effects
[2]; used in over 10,000 horses
  adverse event claims in field use: not been a single claim of any adverse event
R. equi [3]
  treated mares with positive airborne samples: 2 of 10
Virulent R. equi [4]
  highest level of virulent R. equi in feces in any treated mare: 17,500 CFU/g
  level of virulent R. equi in feces in most treated mares: ≤ 1,600 CFU/g
  level of virulent R. equi in feces in several treated mares: almost undetectable levels
[5]; 9.2 mg/kg daily for 6 days, two horses
  whole blood concentrations following gallium nitrate administration (FIG. 1): increased
[5]; horses
  increase in blood concentration over time: 250%
[5]; horses, value the concentration increased from
  blood concentration of gallium, starting value: 0.0000231 µmol/g
[5]; horses, value the concentration increased to
  blood concentration of gallium, after feeding: 0.0009004 µmol/g
[5]; single dose 9.2 mg/kg, 1% gallium nitrate, nasogastric tube
  time of peak gallium in whole blood and serum: around 24 hours
[5]; single dose 9.2 mg/kg, 1% gallium nitrate, nasogastric tube, whole blood and serum
  time by which absorption of gallium was demonstrated: ≤ 6 h
[6]
  fecal concentration of gallium, treated versus control mares (FIG. 3): significant increase
R. equi [7]; previous in vitro data
  concentration that killed R. equi in culture: over 0.050 micromoles/ml
R. equi [7]; reported
  effect on growth of R. equi grown in media: significant inhibition in growth and to even kill R. equi
R. equi [8]
  R. equi growth in experimentally infected mice: decrease R. equi growth
[9]; 50 mg/kg and below
  adverse effects in the fetus: no adverse effects
[9]; 100 mg/kg
  fetal malformations: cleft palate and renal hypoplasia were increased
Virulent R. equi [10]; oral gallium nitrate daily
  concentration of R. equi in the feces of the mares: reduction
Virulent R. equi [10]; time 3, week after foaling, P<0.05
  concentrations of virulent R. equi in feces, treatment group compared to control: significantly lower
Virulent R. equi [10]; week after foaling versus day 320 of gestation, P<0.05
  concentrations of virulent R. equi in feces, time 3 versus time 1 in treatment group: significantly (P<0.05) lower
[11]
  effect on regeneration of bone and cartilage: dose dependent effect
